Numbered stars: 1 amine (or outer) side, 2 acyl side, 3 side chain; on linkers, the order of the positions; unused ones are H or OH. Square brackets hold non-standard residues; d marks the D form. Peptide text beside a SMILES is read from it. * marks the point of attachment. DOTA = O=C(O)CN1CCN(CC(=O)O)CCN(CC(=O)*)CCN(CC(=O)O)CC1; NMeH = CN[C@@H](Cc1c[nH]cn1)C(=O)O; X1 = O=C(CN1CCC(N[*:1])CC1)[*:2]; Tle = CC(C)(C)[C@H](N)C(=O)O; Thz = O=C(O)[C@@H]1CSCN1
Assays:
[1] = test system: PC-3 tumor-bearing NRG mouse; test: Longitudinal SPECT/CT imaging in PC-3 tumor-bearing mice; type: in vivo, mice (NRG); settings: SPECT/CT images
Procedure: The PC-3 tumor-bearing mice were sedated (2.5% isoflurane in O2) and injected with ^177Lu-labeled ligands (15–32 MBq) through a lateral caudal tail vein. […] At each time point, a 5 min CT scan was obtained using 615 μA and 60 kV parameters for localization and attenuation, followed by 2 × 30 min static SPECT scans acquired in list mode with an energy window centered around 208 keV. The MILabs U-SPECT II reconstruction software (version 8.00) was used to reconstruct data, and the images were decay corrected to the time of injection with PMOD v 3.402 (PMOD Technologies GmbH, Fallanden, Switzerland).

PC-3 tumor-bearing mice = test: Ex vivo biodistribution in PC-3 tumor-bearing mice
Procedure: (§1) SPECT/CT imaging experiments were performed using an MILabs (Houten, The Netherlands) U-SPECT-II/CT scanner with a custom-made ultra-high-sensitivity big mouse collimator (2 mm pinhole size) following previously reported procedures. […] Male NOD.Cg-Rag1^tm1Mom Il2rg^tm1Wjl/SzJ (NRG) mice were used in these experiments because of their immunodeficient characteristics and excellent radiation tolerance. Mice were anaesthetized and subcutaneously implanted with 5 × 10^6 PC-3 prostate cancer cells (100 µL; 1:1 PBS/Matrigel) behind the left shoulder. SPECT/CT imaging and biodistribution studies were performed once the tumors reached a diameter of 5–8 mm, typically after approximately 4 weeks of growth.
(§2) For ex vivo biodistribution studies, the mice were injected with ~2–6 MBq of the radioligand. […] Blocking study was conducted at 1 h post-injection via co-injection of the radioligand with 100 μg of [D-Phe^6,Leu-NHEt^13,des-Met^14]Bombesin(6–14). Organs/tissues of interested were collected, weighed, and measured using an automatic gamma counter.

[2] = Ex vivo biodistribution in PC-3 tumor-bearing mice; settings: mouse; for tissue to tissue ratio at 1 h / tissue to tissue ratio at 4 h / tissue to tissue ratio at 24 h / tissue to tissue ratio at 72 h / tissue to tissue ratio at 120 h: male, NOD.Cg-Rag1^tm1Mom Il2rg^tm1Wjl/SzJ (NRG), total radioactivity; for tissue to tissue ratio at 4 h / tissue uptake at 4 h: 4 h post-injection; for tissue to tissue ratio at 24 h / tissue uptake at 24 h: 24 h post-injection; for tissue to tissue ratio at 72 h / tissue uptake at 72 h: 72 h post-injection
Procedure: as §1, §2

[3] = 1 h blocked (co-injected with 100 µg [D-Phe6,Leu-NHEt13,des-Met14]Bombesin(6-14))
[4] = 1 h post-injection, 100 µg [D-Phe6,Leu-NHEt13,des-Met14]Bombesin(6–14)
[5] = tumor/blood, Tumor/blood uptake ratio
[6] = tumor/kidney, Tumor/kidney uptake ratio
[7] = tumor/muscle, Tumor/muscle uptake ratio
[8] = tumor/pancreas, Tumor/pancreas uptake ratio
[9] = PC-3 tumor, Uptake in PC-3 tumor
[10] = adrenal glands, Uptake in adrenal glands

## CC(C)C[C@H](NC(=O)[C@H](Cc1cnc[nH]1)N(C)C(=O)CNC(=O)[C@@H](NC(=O)[C@H](C)NC(=O)[C@H](Cc1c[nH]c2ccccc12)NC(=O)[C@H](Cc1c[nH]cn1)NC(=O)[C@@H](Cc1ccccc1)NC(=O)CN1CCC(NC(=O)CN2CCN(CC(=O)O)CCN(CC(=O)O)CCN(CC(=O)O)CC2)CC1)C(C)(C)C)C(=O)N1CSC[C@H]1C(N)=O [[^177Lu]Lu-LW01142, metal not drawn] ({DOTA}-[X1][dF]HWA[Tle]G[NMeH]L[Thz]-NH2)
[1]
  excretion pathway: excreted mainly via the renal pathway
PC-3 tumor-bearing mice; [3]
  Uptake in lungs: 1.06 ± 0.27 %ID/g
  Uptake in stomach: 0.17 ± 0.06 %ID/g
PC-3 tumor-bearing mice; 1 h post-injection
  Uptake in bone: 0.15 ± 0.03 %ID/g
  Uptake in kidneys: 6.86 ± 0.81 %ID/g
  Uptake in large intestine: 0.76 ± 0.16 %ID/g
  Uptake in liver: 0.71 ± 0.08 %ID/g
  Uptake in pancreas: 4.45 ± 0.83 %ID/g
  Uptake in spleen: 0.47 ± 0.07 %ID/g
  Uptake in testes: 0.32 ± 0.18 %ID/g
PC-3 tumor-bearing mice; [4]
  reduction of average pancreas uptake by co-injection of blocker: 58%
  reduction of average tumor uptake by co-injection of blocker: 62%
PC-3 tumor-bearing mice; 4 h post-injection
  Uptake in heart: 0.06 ± 0.01 %ID/g
  Uptake in kidneys: 5.51 ± 0.54 %ID/g
  Uptake in spleen: 0.17 ± 0.04 %ID/g
PC-3 tumor-bearing mice; 24 h post-injection
  Uptake in pancreas: 1.06 ± 0.26 %ID/g
PC-3 tumor-bearing mice; 72 h post-injection
  Uptake in liver: 0.12 ± 0.03 %ID/g
  Uptake in stomach: 0.10 ± 0.05 %ID/g
PC-3 tumor-bearing mice; 120 h post-injection
  Uptake in adrenal glands: 0.17 ± 0.09 %ID/g
PC-3 tumor-bearing mice; relative to 1 h uptake
  uptake in PC-3 tumor xenografts cleared within 24 h: 47%
[2]; tumor/blood, Tumor/blood uptake ratio, 1 h blocked (co-injected with 100 µg [D-Phe6,Leu-NHEt13,des-Met14]Bombesin(6-14))
  tissue to tissue ratio at 1 h: 3.91 ± 0.87
[2]; tumor/blood, Tumor/blood uptake ratio, 1 h post-injection
  tissue to tissue ratio at 1 h: 8.08 ± 0.92
[2]; [5]
  tissue to tissue ratio at 4 h: 162 ± 52
  tissue to tissue ratio at 24 h: 841 ± 162
  tissue to tissue ratio at 72 h: 1620 ± 500
[2]; tumor/blood, Tumor/blood uptake ratio, 120 h post-injection
  tissue to tissue ratio at 120 h: 1800 ± 724
[2]; tumor/kidney, Tumor/kidney uptake ratio, 1 h blocked (co-injected with 100 µg [D-Phe6,Leu-NHEt13,des-Met14]Bombesin(6-14))
  tissue to tissue ratio at 1 h: 0.7 ± 0.15
[2]; tumor/kidney, Tumor/kidney uptake ratio, 1 h post-injection
  tissue to tissue ratio at 1 h: 1.95 ± 0.04
[2]; [6]
  tissue to tissue ratio at 4 h: 2.14 ± 0.26
  tissue to tissue ratio at 24 h: 2.88 ± 0.84
  tissue to tissue ratio at 72 h: 7.34 ± 1.83
[2]; tumor/kidney, Tumor/kidney uptake ratio, 120 h post-injection
  tissue to tissue ratio at 120 h: 7.46 ± 1.11
[2]; tumor/muscle, Tumor/muscle uptake ratio, 1 h blocked (co-injected with 100 µg [D-Phe6,Leu-NHEt13,des-Met14]Bombesin(6-14))
  tissue to tissue ratio at 1 h: 25.2 ± 10.1
[2]; tumor/muscle, Tumor/muscle uptake ratio, 1 h post-injection
  tissue to tissue ratio at 1 h: 60.1 ± 5.97
[2]; [7]
  tissue to tissue ratio at 4 h: 454 ± 53.3
  tissue to tissue ratio at 24 h: 672 ± 161
  tissue to tissue ratio at 72 h: 736 ± 189
[2]; tumor/muscle, Tumor/muscle uptake ratio, 120 h post-injection
  tissue to tissue ratio at 120 h: 588 ± 92.8
[2]; tumor/pancreas, Tumor/pancreas uptake ratio, 1 h blocked (co-injected with 100 µg [D-Phe6,Leu-NHEt13,des-Met14]Bombesin(6-14))
  tissue to tissue ratio at 1 h: 2.79 ± 0.69
[2]; tumor/pancreas, Tumor/pancreas uptake ratio, 1 h post-injection
  tissue to tissue ratio at 1 h: 3.06 ± 0.45
[2]; [8]
  tissue to tissue ratio at 4 h: 7.53 ± 0.35
  tissue to tissue ratio at 24 h: 6.78 ± 0.88
  tissue to tissue ratio at 72 h: 6.18 ± 0.6
[2]; tumor/pancreas, Tumor/pancreas uptake ratio, 120 h post-injection
  tissue to tissue ratio at 120 h: 4.08 ± 1
[2]; PC-3 tumor, 100 ug, Uptake in PC-3 tumor, 1 h blocked (co-injected with 100 µg [D-Phe6,Leu-NHEt13,des-Met14]Bombesin(6-14))
  tissue uptake at 1 h: 5.03 ± 0.43 %ID/g
[2]; PC-3 tumor, Uptake in PC-3 tumor, 1 h post-injection
  tissue uptake at 1 h: 13.4 ± 1.48 %ID/g
[2]; [9]
  tissue uptake at 4 h: 11.8 ± 2.24 %ID/g
  tissue uptake at 24 h: 7.07 ± 1.23 %ID/g
  tissue uptake at 72 h: 4.18 ± 0.6 %ID/g
[2]; PC-3 tumor, Uptake in PC-3 tumor, 120 h post-injection
  tissue uptake at 120 h: 2.25 ± 0.71 %ID/g
[2]; adrenal glands, 100 ug, Uptake in adrenal glands, 1 h blocked (co-injected with 100 µg [D-Phe6,Leu-NHEt13,des-Met14]Bombesin(6-14))
  tissue uptake at 1 h: 0.75 ± 0.33 %ID/g
[2]; adrenal glands, Uptake in adrenal glands, 1 h post-injection
  tissue uptake at 1 h: 1.43 ± 0.5 %ID/g
[2]; [10]
  tissue uptake at 4 h: 0.59 ± 0.06 %ID/g
  tissue uptake at 24 h: 0.41 ± 0.08 %ID/g
  tissue uptake at 72 h: 0.2 ± 0.05 %ID/g
[2]; blood, 100 ug, Uptake in blood, 1 h blocked (co-injected with 100 µg [D-Phe6,Leu-NHEt13,des-Met14]Bombesin(6-14))
  tissue uptake at 1 h: 1.34 ± 0.35 %ID/g
[2]; blood, Uptake in blood, 1 h post-injection
  tissue uptake at 1 h: 1.67 ± 0.21 %ID/g
[2]; blood, Uptake in blood
  tissue uptake at 4 h: 0.08 ± 0.01 %ID/g
  tissue uptake at 24 h: 0.01 %ID/g
[2]; bone, 100 ug, Uptake in bone, 1 h blocked (co-injected with 100 µg [D-Phe6,Leu-NHEt13,des-Met14]Bombesin(6-14))
  tissue uptake at 1 h: 0.13 ± 0.03 %ID/g
[2]; bone, Uptake in bone
  tissue uptake at 4 h: 0.03 ± 0.01 %ID/g
  tissue uptake at 24 h: 0.03 ± 0.01 %ID/g

Source: paper PMC12030706, “Novel ^177Lu-Labeled [Thz^14]Bombesin(6–14) Derivatives with Low Pancreas Accumulation for Targeting Gastrin-Releasing Peptide Receptor-Expressing Cancer” (Pharmaceuticals, 2025)
